Holding throughout (format): biochemical
In one test the target is MASP-2 (CCP1-CCP2-SP) (Homo sapiens (Human), UniProt O00187). The test is described as follows: biochemical. The note with it: for MASP-2 vs. thrombin selectivity: selectivity for MASP-2 inhibition versus thrombin.
The target in another test is human α-thrombin (Homo sapiens (Human), UniProt P00734). In words: Enzymatic assay for thrombin (Boc-VPR-AMC substrate).
For the next test, the target named is mMASP-2 (Mus musculus (Mouse), UniProt Q91WP0). In words: Enzymatic inhibition of mMASP-2. The following applies: read-out: mMASP-2 Ki.
mMASP-2, sequence (Q91WP0 20-685): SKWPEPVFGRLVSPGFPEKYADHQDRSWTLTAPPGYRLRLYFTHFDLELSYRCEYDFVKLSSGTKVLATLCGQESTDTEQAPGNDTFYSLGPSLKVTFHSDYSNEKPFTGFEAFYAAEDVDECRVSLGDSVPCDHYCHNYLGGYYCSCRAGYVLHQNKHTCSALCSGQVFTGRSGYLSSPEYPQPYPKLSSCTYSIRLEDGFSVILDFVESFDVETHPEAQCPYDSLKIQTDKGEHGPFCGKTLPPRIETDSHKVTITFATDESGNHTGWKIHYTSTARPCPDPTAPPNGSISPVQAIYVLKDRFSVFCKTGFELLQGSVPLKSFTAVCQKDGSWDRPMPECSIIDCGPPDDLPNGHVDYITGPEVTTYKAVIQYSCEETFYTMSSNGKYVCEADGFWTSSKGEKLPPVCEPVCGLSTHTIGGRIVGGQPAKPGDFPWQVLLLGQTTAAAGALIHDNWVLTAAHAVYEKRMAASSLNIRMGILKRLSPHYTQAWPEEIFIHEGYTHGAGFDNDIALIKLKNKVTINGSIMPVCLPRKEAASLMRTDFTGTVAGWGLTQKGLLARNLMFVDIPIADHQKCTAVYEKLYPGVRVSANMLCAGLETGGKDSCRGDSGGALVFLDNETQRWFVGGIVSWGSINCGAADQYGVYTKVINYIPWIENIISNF

In general, Ki refers to the equilibrium dissociation constant of an inhibitor or competing ligand from its target.

Where a name gives a salt, the structure may show the parent alone. Read-outs that look alike come from different tables or passages of the source.

MASP-2 (CCP1-CCP2-SP), sequence (O00187 445-686): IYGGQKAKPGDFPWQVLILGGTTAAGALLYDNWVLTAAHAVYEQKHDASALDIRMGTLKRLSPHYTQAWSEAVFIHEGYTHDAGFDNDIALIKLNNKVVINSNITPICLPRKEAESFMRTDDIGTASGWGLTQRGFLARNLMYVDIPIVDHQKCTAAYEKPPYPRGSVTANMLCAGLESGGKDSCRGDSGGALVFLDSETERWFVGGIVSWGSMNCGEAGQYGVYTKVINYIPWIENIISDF

In the case of `C[C@H](NC(=O)[C@H]1C[C@H](c2ccccc2)CN1)C(=O)NCc1cc(Cl)cc(C(N)=O)c1` [compound 1387, (2R,4R)—N—((S)-1-((3-Carbamoyl-5-chlorobenzyl)amino)-1-oxopropan-2-yl)-4-phenylpyrrolidine-2-carboxamide Trifluoroacetate salt], the results for the Ki on MASP-2 (CCP1-CCP2-SP), on human α-thrombin (read-out: Thrombin Ki) and at mMASP-2 were 2500 to 10000 nM, over 25 µM and 10000 to 25000 nM, respectively.
In the same order, the values of `C[C@H](NC(=O)[C@H]1C[C@H](c2ccccc2)CN1)C(=O)NCc1ccc2c(N)noc2c1` [compound 1390, (2R,4R)—N—((S)-1-(((3-Aminobenzo[d]isoxazol-6-yl)methyl)amino)-1-oxopropan-2-yl)-4-phenylpyrrolidine-2-carboxamide Di-trifluoroacetate salt] are 2500 to 10000 nM, over 25 µM and over 25000 nM.
`Cc1nc(N)ccc1CNC(=O)[C@H](C)NC(=O)[C@H]1C[C@H](Cc2ccc(N3CCCC3=O)cc2)CN1` [compound 1391, (2R,4S)—N—((S)-1-(((6-Amino-2-methylpyridin-3-yl)methyl)amino)-1-oxopropan-2-yl)-4-(4-(2-oxopyrrolidin-1-yl)benzyl)pyrrolidine-2-carboxamide Di-trifluoroacetate salt]: the values for the inhibition constant Ki on MASP-2 (CCP1-CCP2-SP) (read-out: MASP-2 Ki), on human α-thrombin (read-out: Thrombin Ki) and at mMASP-2 were under 500 nM, over 25 µM and under 500 nM, respectively. In addition, the “MASP-2 vs. thrombin selectivity” value on MASP-2 (CCP1-CCP2-SP) is “**** (≥100-fold)”.
On to `C[C@H](NC(=O)[C@H]1C[C@H](Cc2ccccc2-c2ccccc2)CN1)C(=O)NCc1cnc2[nH]cc(Cl)c2c1` [compound 1393, (2R,4S)-4-([1,1′-Biphenyl]-2-ylmethyl)-N-((S)-1-(((3-chloro-1H-pyrrolo[2,3-b]pyridin-5-yl)methyl)amino)-1-oxopropan-2-yl)pyrrolidine-2-carboxamide Di-trifluoroacetate salt], for which the figures for the Ki on MASP-2 (CCP1-CCP2-SP) (read-out: MASP-2 Ki), at human α-thrombin (read-out: Thrombin Ki) and at mMASP-2 were under 500 nM, under 0.5 µM and under 500 nM, respectively. The “MASP-2 vs. thrombin selectivity” value on MASP-2 (CCP1-CCP2-SP) is on record as “* (≥1.0 to <5.0-fold)”.
Take `C[C@H](NC(=O)[C@H]1C[C@H](c2ccccc2)CN1)C(=O)NCc1cc(Cl)ccc1-n1ncnn1` [compound 1394, (2R,4R)—N—((S)-1-((5-chloro-2-(2H-tetrazol-2-yl)benzyl)amino)-1-oxopropan-2-yl)-4-phenylpyrrolidine-2-carboxamide Trifluoroacetate]: the Ki at MASP-2 (CCP1-CCP2-SP) is 2500 to 10000 nM; at human α-thrombin (Thrombin Ki (μM)) it was 10 to 25 µM; on mMASP-2 it was over 25000 nM. For the same compound, the “MASP-2 vs. thrombin selectivity” value on MASP-2 (CCP1-CCP2-SP) is given as “* (≥1.0 to <5.0-fold)”.
In the case of `C[C@H](NC(=O)[C@H]1C[C@H](c2ccccc2)CN1)C(=O)NCc1cc(Cl)cc(Cl)c1O` [compound 1395, (2R,4R)—N—((S)-1-((3,5-dichloro-2-hydroxybenzyl)amino)-1-oxopropan-2-yl)-4-phenylpyrrolidine-2-carboxamide Trifluoroacetate], the Ki was 500 to 2500 nM at MASP-2 (CCP1-CCP2-SP), over 25 µM on human α-thrombin (read-out: Thrombin Ki) and 2500 to 10000 nM on mMASP-2.
Take `Cc1nc(N)ccc1CNC(=O)[C@H](C)NC(=O)[C@H]1C[C@@H](c2ccccc2)CCN1CC(=O)O` [compound 1398, 2-((2R,4S)-2-(((S)-1-(((6-Amino-2-methylpyridin-3-yl)methyl)amino)-1-oxopropan-2-yl)carbamoyl)-4-phenylpiperidin-1-yl)acetic acid Trifluoroacetate salt]: the values for the Ki at MASP-2 (CCP1-CCP2-SP) (read-out: MASP-2 Ki), on human α-thrombin (read-out: Thrombin Ki) and at mMASP-2 were under 500 nM, over 25 µM and 500 to 2500 nM, respectively.
In the case of `Cc1nc(N)ccc1CNC(=O)[C@H](C)NC(=O)[C@H]1C[C@H](Cc2cc(-c3ccccc3)cs2)CN1` [compound 1399, (2R,4R)—N—((S)-1-(((6-Amino-2-methylpyridin-3-yl)methyl)amino)-1-oxopropan-2-yl)-4-((4-phenylthiophen-2-yl)methyl)pyrrolidine-2-carboxamide Dihydrochloride], the Ki on MASP-2 (CCP1-CCP2-SP) (read-out: MASP-2 Ki) was under 500 nM; on human α-thrombin (Thrombin Ki (μM)), 10 to 25 µM; at mMASP-2 it was under 500 nM. The “MASP-2 vs. thrombin selectivity” value on MASP-2 (CCP1-CCP2-SP) is listed as “**** (≥100-fold)”.
As for `Cc1cc(Cl)cc(CNC(=O)[C@H](C)NC(=O)[C@H]2C[C@H](Cc3ccccc3-c3ccccc3)CN2)c1O` [compound 1401, (2R,4S)-4-([1,1′-Biphenyl]-2-ylmethyl)-N-((S)-1-((5-chloro-2-hydroxy-3-methylbenzyl)amino)-1-oxopropan-2-yl)pyrrolidine-2-carboxamide Hydrochloride], the Ki is under 500 nM at MASP-2 (CCP1-CCP2-SP) (read-out: MASP-2 Ki), over 25 µM on human α-thrombin (read-out: Thrombin Ki) and 500 to 2500 nM at mMASP-2.
Regarding `C[C@H](NC(=O)[C@H]1C[C@H](Cc2ccccc2-c2ccccc2)CN1)C(=O)NCc1cc(Cl)ccc1-n1cnnn1` [compound 1402, (2R,4S)-4-([1,1′-Biphenyl]-2-ylmethyl)-N-((S)-1-((5-chloro-2-(1H-tetrazol-1-yl)benzyl)amino)-1-oxopropan-2-yl)pyrrolidine-2-carboxamide Trifluoroacetate], the Ki on MASP-2 (CCP1-CCP2-SP) (read-out: MASP-2 Ki) is under 500 nM; at human α-thrombin (read-out: Thrombin Ki), under 0.5 µM; at mMASP-2 it was 500 to 2500 nM. Further, the “MASP-2 vs. thrombin selectivity” value on MASP-2 (CCP1-CCP2-SP) is recorded as “* (≥1.0 to <5.0-fold)”.
With `Cc1nc(N)ccc1CNC(=O)[C@H](C)NC(=O)[C@H]1C[C@H](Cc2ccc(-c3ccc(F)cc3CN)cc2)CN1` [compound 1403, (2R,4S)—N—((S)-1-(((6-Amino-2-methylpyridin-3-yl)methyl)amino)-1-oxopropan-2-yl)-4-((2′-(aminomethyl)-4′-fluoro-[1,1′-biphenyl]-4-yl)methyl)pyrrolidine-2-carboxamide], the Ki at MASP-2 (CCP1-CCP2-SP) (read-out: MASP-2 Ki) was under 500 nM; at human α-thrombin (read-out: Thrombin Ki) it was over 25 µM; on mMASP-2, 500 to 2500 nM.
For `C[C@H](NC(=O)[C@H]1C[C@H](Cc2ccc(-c3cccnc3)cc2)CN1)C(=O)NCc1cc(Cl)ccc1-n1cnnn1` [compound 1404, (2R,4S)—N—((S)-1-((5-Chloro-2-(1H-tetrazol-1-yl)benzyl)amino)-1-oxopropan-2-yl)-4-(4-(pyridin-3-yl)benzyl)pyrrolidine-2-carboxamide Hydrochloride], the Ki was under 500 nM on MASP-2 (CCP1-CCP2-SP) (read-out: MASP-2 Ki), under 0.5 µM on human α-thrombin (read-out: Thrombin Ki) and under 500 nM at mMASP-2. The “MASP-2 vs. thrombin selectivity” value at MASP-2 (CCP1-CCP2-SP) is on record as “** (≥5.0 to <25-fold)”.
For the compound `C[C@H](NC(=O)[C@H]1C[C@H](Cc2ccc(-c3ccc(F)cc3C(N)=O)cc2)CN1)C(=O)NCc1cc(Cl)ccc1-n1cnnn1` [compound 1405, (2R,4S)-4-((2′-Carbamoyl-4′-fluoro-[1,1′-biphenyl]-4-yl)methyl)-N-((S)-1-((5-chloro-2-(1H-tetrazol-1-yl)benzyl)amino)-1-oxopropan-2-yl)pyrrolidine-2-carboxamide Hydrochloride], the figures for the Ki on MASP-2 (CCP1-CCP2-SP) (read-out: MASP-2 Ki), on human α-thrombin (Thrombin Ki (μM)) and at mMASP-2 were under 500 nM, 0.5 to 2.5 µM and 500 to 2500 nM, respectively. For the same compound, at MASP-2 (CCP1-CCP2-SP), the “MASP-2 vs. thrombin selectivity” value was “** (≥5.0 to <25-fold)”.
The matching figures for `Cc1nc(N)ccc1CNC(=O)[C@H](C)NC(=O)[C@H]1C[C@H](Cc2cccc(-c3ccccc3)c2)CN1` [compound 1406, (2R,4S)-4-([1,1′-Biphenyl]-3-ylmethyl)-N-((S)-1-(((6-amino-2-methylpyridin-3-yl)methyl)amino)-1-oxopropan-2-yl)pyrrolidine-2-carboxamide Dihydrochloric acid]: under 500 nM, 2.5 to 10 µM, under 500 nM and “**** (≥100-fold)”.
